# In patent US5929236A, “2-substituted morpholine and thiomorpholine derivatives as GABA-B antagonists” (Schering Corporation, priority 1995, dated 1999):
# Legend:
# GABAB receptors = target: T1, GABAB receptors (Rattus norvegicus, UniProt Q9Z0U4); experiment: GABAB Receptor Binding Assay ([3H]GABA, rat brain synaptosomes); settings: 5 nM [3H]GABA, rat brain synaptosomes, 20° C., 30 min
# T1 construct: Rat brain synaptosomes are used as a source of GABAB receptors; from tissue; host or cells: rat brain synaptosomes
# Procedure: GABAB Receptor Binding Assay
# The percentage inhibition of GABA binding to GABAB receptors is measured by tritiated GABA ([^3 H]GABA) determination of the degree of binding by scintillation counting. Rat brain synaptosomes are used as a source of GABAB receptors. An incubation medium is prepared from the following: 20 μg/mL of the compound to be tested as a solution in 1% DMSO/water; 5 nM [^3 H]GABA; 50 mM Tris buffer (pH 7.5); and 2.5 mM CaCl2. The medium also contains 40 μM isoguvacine to selectively block binding to GABAA receptors. The synaptosome (200 μg/mL) is added to the incubation medium and incubated for 30 minutes at 20° C. The incubation is terminated by filtration and counted to determine the percentage inhibition of [^3 H]-GABA binding. The results are reported as IC50 values for those compounds inhibiting [^3 H]-GABA binding by >50%.
# [1] = target: prejunctional GABAB receptors (Cavia porcellus, UniProt A0A286X9P6); experiment: In Vitro Assay (guinea pig trachea, reversal of baclofen inhibition of EFS-induced contractions); format: cell-based, guinea pig (male Hartley); settings: 30 μmol/L baclofen
# Procedure: Male Hartley guinea pigs (450-650 g) are sacrificed by stunning and the trachea removed proximal to the carina and cut into 5 mm segments. The segments are attached to isometric force displacement transducers (Model FT03: Grass Instruments) and suspended in 15 mL organ baths filled with low Ca^2+ (0.6 mmol/L) Tyrode's buffer solution (pH 7.4) supplemented with 5.6 mmol/L glucose, 30 μmol/L choline and 2 μmol/L indomethacin. The solution is bubbled with a mixture of 95% O2 +5% CO2 and maintained at 37° C. The tracheal segments are allowed to equilibrate for 90 minutes under a resting tension of 0.5 g.
# Platinum electrodes are placed on either side of the trachea and electrical field stimulation (EFS) (20 V, 8 Hz, 0.5 ms pulse for 5 s) was generated each minute from an electrical stimulator (Model S-88: Grass Instruments) and delivered to the electrodes through a stimulus distributor (Buxco Electronics). The stimulation parameters are chosen as appropriate for producing cholinergic contractions of the trachea that are sensitive to the inhibitory effects of compounds acting at prejunctional GABAB receptors. Contractile responses were recorded on a polygraph (Harvard Apparatus). The compound to be tested is added to the bath 10 min. before addition of 30 μmol/L baclofen. The effect of baclofen treatment in the absence or in the presence of the compound to be tested is expressed as a percent inhibition of EFS-induced contractions.
# [2] = system: seizure in lethargic (lh/lh) mice; experiment: Prevention of seizure in lethargic (lh/lh) mice; format: in vivo
# Source text: B. Hosford, et al., Science, 257, 398-401 (Jul. 17, 1992), teaches a pharmacological model for testing the effectiveness of GABAB antagonists as anticonvulsants for the treatment of absence seizures by administering the compound to be tested to lethargic (lh/lh) mice, a mutant strain with spontaneous seizures.
# [3] = system: Respiratory Depressant Effect of Baclofen; experiment: Inhibition of Respiratory Depressant Effect of Baclofen; format: in vivo, guinea pig; settings: for % Inhibition: mean ± SEM; for ED50: Cavia porcellus
# Procedure: (§1) Animal Model for Respiratory Depression:
# Place unanesthetized guinea pigs in a head-out plethysmograph and expose to a CO2 enriched gas mixture (10% CO2, 21% O2, 69% N2) for 10 min., (see Danko, et al., J. Pharm. Methods, 19, 165-173 (1988)). Plethysmograph pressure is detected with a transducer connected to a chart recorder. Minute ventilation is calculated as the product of tidal volume and respiratory frequency. The compound to be tested is administered orally, subcutaneously (sc), intraperitoneally (ip) or via an intracerebroventricular route (icv). Baclofen (3 mg/kg, sc) was given 30 min before exposure to the CO2 enriched gas. […] A 40 or 30 min. preteratment is used for the subcutaneous and intraperitoneal routes, respectively. The vehicle for oral, sc or ip administration is saline. For icv administration, single icv cannulae are placed in the lateral ventricle of anesthetized guinea pigs, (see McLeod, et al., Eur. J. Pharmacol., 209, 141-142 (1988)). The animals are allowed to recover approximately one week prior to use for ventilation experiments. The vehicle for icv administration is artificial cerebrospinal fluid (CSF).
# [4] = system: Respiratory Depressant Effect of Baclofen; experiment: Reversal of the Respiratory Depressant Effect of Baclofen via icv Administration; format: in vivo, guinea pig; settings: 50 μg in 10 μl of vehicle, icv, 5 min before measurement of ventilation; mean ± SEM
# Procedure: as §1
# Place unanesthetized guinea pigs in a head-out plethysmograph and expose to a CO2 enriched gas mixture (10% CO2, 21% O2, 69% N2) for 10 min., (see Danko, et al., J. Pharm. Methods, 19, 165-173 (1988)). Plethysmograph pressure is detected with a transducer connected to a chart recorder. Minute ventilation is calculated as the product of tidal volume and respiratory frequency. The compound to be tested is administered orally, subcutaneously (sc), intraperitoneally (ip) or via an intracerebroventricular route (icv). Baclofen (3 mg/kg, sc) was given 30 min before exposure to the CO2 enriched gas. When given by the oral route, the compounds is administered 1, 3, 5 or 7 h before exposure to CO2 enriched gas. A 40 or 30 min. preteratment is used for the subcutaneous and intraperitoneal routes, respectively. The vehicle for oral, sc or ip administration is saline. For icv administration, single icv cannulae are placed in the lateral ventricle of anesthetized guinea pigs, (see McLeod, et al., Eur. J. Pharmacol., 209, 141-142 (1988)). The animals are allowed to recover approximately one week prior to use for ventilation experiments. The vehicle for icv administration is artificial cerebrospinal fluid (CSF).
# prejunctional GABAB receptors, sequence (A0A286X9P6 30-844): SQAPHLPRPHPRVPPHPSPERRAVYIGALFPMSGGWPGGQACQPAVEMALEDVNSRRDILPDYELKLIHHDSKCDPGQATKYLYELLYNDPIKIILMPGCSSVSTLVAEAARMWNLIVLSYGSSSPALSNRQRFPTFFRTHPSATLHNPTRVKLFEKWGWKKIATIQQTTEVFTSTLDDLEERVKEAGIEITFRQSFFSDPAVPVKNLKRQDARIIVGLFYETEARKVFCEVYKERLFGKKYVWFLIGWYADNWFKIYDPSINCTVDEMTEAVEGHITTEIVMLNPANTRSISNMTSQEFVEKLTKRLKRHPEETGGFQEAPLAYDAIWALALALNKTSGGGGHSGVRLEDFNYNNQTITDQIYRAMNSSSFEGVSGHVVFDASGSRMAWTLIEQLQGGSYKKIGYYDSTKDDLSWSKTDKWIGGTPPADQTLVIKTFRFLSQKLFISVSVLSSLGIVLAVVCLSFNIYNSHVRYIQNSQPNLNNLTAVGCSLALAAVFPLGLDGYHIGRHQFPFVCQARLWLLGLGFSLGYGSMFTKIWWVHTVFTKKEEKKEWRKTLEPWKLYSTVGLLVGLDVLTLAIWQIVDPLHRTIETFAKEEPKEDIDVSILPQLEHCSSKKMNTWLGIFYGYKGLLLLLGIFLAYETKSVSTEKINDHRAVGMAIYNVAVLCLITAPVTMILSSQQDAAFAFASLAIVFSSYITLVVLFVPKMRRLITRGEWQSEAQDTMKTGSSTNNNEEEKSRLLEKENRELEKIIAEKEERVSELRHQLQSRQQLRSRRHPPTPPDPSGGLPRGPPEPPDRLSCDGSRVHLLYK
# prejunctional GABAB receptors, sequence (H0V741 1-820 partner): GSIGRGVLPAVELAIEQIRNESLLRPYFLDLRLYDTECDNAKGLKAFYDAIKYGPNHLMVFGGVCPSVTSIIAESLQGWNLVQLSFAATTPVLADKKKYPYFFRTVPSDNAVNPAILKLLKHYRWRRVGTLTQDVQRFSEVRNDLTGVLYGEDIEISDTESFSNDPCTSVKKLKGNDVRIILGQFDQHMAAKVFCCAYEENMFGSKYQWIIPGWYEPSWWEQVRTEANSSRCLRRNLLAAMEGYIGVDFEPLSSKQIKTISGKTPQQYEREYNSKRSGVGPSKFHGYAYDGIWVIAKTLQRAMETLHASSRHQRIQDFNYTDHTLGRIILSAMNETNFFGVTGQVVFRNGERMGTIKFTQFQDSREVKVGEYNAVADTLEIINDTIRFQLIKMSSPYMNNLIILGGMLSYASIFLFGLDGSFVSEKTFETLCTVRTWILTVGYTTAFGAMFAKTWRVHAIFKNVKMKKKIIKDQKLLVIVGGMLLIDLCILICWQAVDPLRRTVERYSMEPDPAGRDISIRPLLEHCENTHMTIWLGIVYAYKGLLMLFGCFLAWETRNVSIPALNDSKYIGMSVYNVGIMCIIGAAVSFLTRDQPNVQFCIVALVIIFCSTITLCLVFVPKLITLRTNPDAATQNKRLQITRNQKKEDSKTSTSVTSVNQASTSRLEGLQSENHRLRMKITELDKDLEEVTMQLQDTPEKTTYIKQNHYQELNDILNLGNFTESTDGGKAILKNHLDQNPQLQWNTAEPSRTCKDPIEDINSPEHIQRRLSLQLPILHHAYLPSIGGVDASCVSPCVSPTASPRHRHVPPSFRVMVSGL
# T1 sequence (Q9Z0U4 17-960 limits assumed): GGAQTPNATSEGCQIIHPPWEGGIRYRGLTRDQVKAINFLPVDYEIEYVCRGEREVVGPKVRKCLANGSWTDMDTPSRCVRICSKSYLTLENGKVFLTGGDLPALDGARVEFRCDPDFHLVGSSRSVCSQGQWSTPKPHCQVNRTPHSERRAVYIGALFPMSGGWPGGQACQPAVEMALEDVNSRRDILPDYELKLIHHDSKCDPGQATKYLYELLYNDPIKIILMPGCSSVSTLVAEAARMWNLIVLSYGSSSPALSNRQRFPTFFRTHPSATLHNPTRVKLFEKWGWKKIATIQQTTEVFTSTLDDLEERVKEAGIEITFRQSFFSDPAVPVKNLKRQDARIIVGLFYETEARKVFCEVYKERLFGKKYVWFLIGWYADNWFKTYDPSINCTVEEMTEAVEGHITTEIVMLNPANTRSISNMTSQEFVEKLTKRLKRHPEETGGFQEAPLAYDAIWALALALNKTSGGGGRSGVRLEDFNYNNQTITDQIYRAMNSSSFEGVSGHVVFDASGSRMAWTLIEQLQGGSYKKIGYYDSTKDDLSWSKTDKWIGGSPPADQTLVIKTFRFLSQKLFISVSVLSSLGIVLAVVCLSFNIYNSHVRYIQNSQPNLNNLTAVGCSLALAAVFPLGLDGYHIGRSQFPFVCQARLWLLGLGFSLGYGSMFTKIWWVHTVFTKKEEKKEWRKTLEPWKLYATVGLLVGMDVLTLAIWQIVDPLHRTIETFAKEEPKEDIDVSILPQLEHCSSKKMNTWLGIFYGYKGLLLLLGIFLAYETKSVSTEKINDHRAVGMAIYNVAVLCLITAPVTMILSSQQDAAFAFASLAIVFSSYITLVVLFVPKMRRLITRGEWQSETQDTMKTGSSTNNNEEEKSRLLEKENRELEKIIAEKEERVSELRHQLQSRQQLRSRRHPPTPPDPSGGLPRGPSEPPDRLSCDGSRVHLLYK
# T1 sequence (O88871 41-940 partner): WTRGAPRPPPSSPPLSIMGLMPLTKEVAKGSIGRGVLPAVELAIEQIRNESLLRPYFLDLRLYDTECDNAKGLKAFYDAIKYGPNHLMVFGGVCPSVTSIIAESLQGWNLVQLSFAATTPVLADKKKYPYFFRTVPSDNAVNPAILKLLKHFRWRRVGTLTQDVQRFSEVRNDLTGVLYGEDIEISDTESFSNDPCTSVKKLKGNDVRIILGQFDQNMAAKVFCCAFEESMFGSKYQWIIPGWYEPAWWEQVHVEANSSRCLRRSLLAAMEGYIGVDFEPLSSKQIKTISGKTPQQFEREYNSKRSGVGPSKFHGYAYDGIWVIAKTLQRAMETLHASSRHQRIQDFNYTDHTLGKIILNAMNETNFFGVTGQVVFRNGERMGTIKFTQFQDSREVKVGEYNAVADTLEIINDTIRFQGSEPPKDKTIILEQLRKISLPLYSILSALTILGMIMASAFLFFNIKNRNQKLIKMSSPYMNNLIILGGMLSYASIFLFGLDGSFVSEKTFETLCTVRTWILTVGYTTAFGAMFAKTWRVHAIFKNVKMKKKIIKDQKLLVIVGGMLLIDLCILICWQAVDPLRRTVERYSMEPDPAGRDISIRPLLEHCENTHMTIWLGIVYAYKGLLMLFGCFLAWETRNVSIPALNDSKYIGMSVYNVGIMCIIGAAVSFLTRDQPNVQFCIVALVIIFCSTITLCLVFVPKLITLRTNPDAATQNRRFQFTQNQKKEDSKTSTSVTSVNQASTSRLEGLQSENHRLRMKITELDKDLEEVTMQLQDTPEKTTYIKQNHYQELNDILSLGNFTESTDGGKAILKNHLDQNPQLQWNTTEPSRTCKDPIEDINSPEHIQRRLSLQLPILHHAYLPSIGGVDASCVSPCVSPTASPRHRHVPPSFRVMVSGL
structure (smiles),measurement,setting,value
"CC1(C)COC(CC(=O)O)CN1 (single isomer, unassigned) [Example 6A]",IC50,GABAB receptors,2000 nM
same,inhibition at 30 µM,[1]; 30 μM,90%
same,IC30,[1]; guinea pig trachea,1100 nM
same,In Vitro % inhibition,[1]; 100 μM,94%
same,Seizures (% vehicle) in 120 min.,[2]; 1.0 mg/kg ip,85%
same,Seizures (% vehicle) in 120 min.,[2]; 3.0 mg/kg ip,60%
same,Seizures (% vehicle) in 120 min.,[2]; 10 mg/kg ip,15%
same,Seizures (% vehicle) in 120 min.,[2]; 30 mg/kg ip,5%
same,% Inhibition,[3]; 0.3 mg/kg ip,39 ± 10%
same,% Inhibition,[3]; 0.3 mg/kg sc,27 ± 6%
same,% Inhibition,[3]; 1.0 mg/kg ip,32 ± 7%
same,% Inhibition,"[3]; 1.0 mg/kg oral, 60 min prior to baclofen",36 ± 13%
same,% Inhibition,[3]; 1.0 mg/kg sc,66 ± 7%
same,% Inhibition,[3]; 3.0 mg/kg ip,59 ± 7%
same,% Inhibition,"[3]; 3.0 mg/kg oral, 60 min prior to baclofen",51 ± 13%
same,% Inhibition,[3]; 3.0 mg/kg sc,97 ± 25%
same,% Inhibition,[3]; 10 mg/kg ip,100 ± 9%
same,% Inhibition,"[3]; 10 mg/kg oral, 60 min prior to baclofen",68 ± 13%
same,% Inhibition,[3]; 10 mg/kg sc,99 ± 11%
same,% Inhibition,"[3]; 30 mg/kg oral, 60 min prior to baclofen",78 ± 29%
same,ED50,[3]; ip,1.9 mg/kg
same,ED50,[3]; sc,0.63 mg/kg
same,ED50,"[3]; oral, 60 min prior to baclofen",3 mg/kg
same,% Inhibition,[4],99 ± 23%
